Key:
Assay type in all cases: cell-based, Rat
FRT W1282X cells = experiment: Transepithelial chloride conductance assay in FRT W1282X cells; conditions: 48 hours; escin 10 μM, G418 250 μg/ml, VX-770 10 μM, VX-809 6 μM, NMDI-14 20 μg/ml, tobramycin 150, gentamicin 250 μg/ml
Protocol: (§1) Stably transfected FRT cells as described herein cells were seeded onto Costar 24-well […] permeable supports at a density of ˜2×10^6 cells/filter and maintained at 37° C. with 5% CO2. Transepithelial resistance was assessed using an epithelial voltmeter to ensure the formation of tight monolayers, as defined by resistance >6 kcm^2. During initial evaluation of agents, cells were treated with compounds (10 μM), vehicle control (0.3% DMSO), or positive control (250 μg/mL G418) for 48 hours before transepithelial conductance (Gt) was assessed; subsequent studies used other concentrations of compounds. Measurements were taken at baseline, after the addition of 20 μM forskolin (FSK, a cAMP agonist that stimulates CFTR activity) and 10 μM CFTRInh-172 (a CFTR-specific inhibitor).
Individual assays were performed as described herein.
As previously reported in the literature, the combination of CFTR correctors (such as VX-809) and CFTR potentiators (such as VX-770) act synergistically to improve CFTR function. […] Compounds alone or in the indicated combination were pre-incubated with FRT W1282X cells for 48 hours. During the assay the baseline conductance (Gt) was initially determined prior to the acute addition of forskolin (20 μM) and VX-770 (10 μM) to stimulate CFTR activity; the CFTR inhibitor, CFTRInh-172 (10 μM), was added to inhibit CFTR activity at the end of the assay. Enhancement of PTC read-through by the compounds of the present disclosure was determined by an increase in CFTR conductance. CFTR conductance also indicated the CFTR was functional as a result of the read-through of the PTC.
Compounds alone or in the indicated combination were pre-incubated with FRT G542X cells for 48 hours. […] Enhancement of PTC read-through by the compounds of the present disclosure was determined by an increase in CFTR conductance. CFTR conductance also indicated the CFTR was functional as a result of the read-through of the PTC.
It has been reported that aminoglycosides interfere with the action read-through stimulating compound. […] CFTR conductance also indicated the CFTR was functional as a result of the read-through of the PTC.
Stimulation of CFTR activity was determined by an increase in CFTR conductance. […] During the assay the baseline conductance (Gt) was initially determined prior to the acute addition of forskolin (20 μM) and GP-5 (10 μM) to stimulate CFTR activity; the CFTR inhibitor, […] (10 μM), was added to inhibit CFTR activity at the end of the assay.
The effect of the read-through stimulating compounds of the present disclosure in combination with the CFTR corrector VX-809 was further examined in FRT cells with the G542X, Y122X and W1282X mutations. […] CFTR conductance also indicated the CFTR was functional as a result of the read-through of the PTC.

FRT G542X cells = experiment: Transepithelial chloride conductance (TECC) assay in FRT G542X cells
Protocol: as §1
In the TECC assay, FRT G542X cells were treated with a single dose (10 μM) of each compound. FRT G542X cells were incubated for 48 hours with the compounds prior or vehicle control (0.3% DMSO). During the assay the baseline conductance (Gt) was initially determined prior to the acute addition of forskolin (20 μM) and VX-770 (10 μM) to stimulate CFTR activity; the CFTR inhibitor, CFTRInh-172 (10 μM), was added to inhibit CFTR activity at the end of the assay. In these experiments, an increase in CFTR conductance indicates the compounds stimulated read-through of the PTC in the constructs tested and that the CFTR was functional.
To prioritize which of the 48 read-through-positive compounds identified would be most efficacious in augmenting PTC read-through and restoring protein function, the TECC assay was repeated (in triplicate) using FRT G542X cells and FRT cells without CFTR (parental cells). Compounds (10 μM) or vehicle control (0.3% DMSO) were incubated for 48 hours with the cells. During the assay the baseline conductance (Gt) was initially determined prior to the acute addition of forskolin (20 μM) and VX-770 (10 μM) to stimulate CFTR activity; the CFTR inhibitor, CFTRInh-172 (10 μM), was added to inhibit CFTR activity at the end of the assay. G418 (250 μg/ml) was used as a positive control. In this assay, an increase in CFTR conductance indicates the compound stimulated read-through of the PTC in the constructs tested and that the CFTR was functional. The 48 compounds tested are provided in the Table 1 below (with the numerical designations corresponding to those shown in FIG. 4).
A series of functional assays was performed to evaluate the efficacy of these lead compounds in greater detail. Using FRT G542X cells, the optimal dose of each compound in augmenting chloride conductance (FIG. 5A) was determined. FRT G542X cells were incubated with compound (1 μM to 30 μM), G418 (250 μg/mL) or vehicle control (0.3% DMSO) for 48 hours. The conductance assay was conducted as described in Example 2 above. In this assay, an increase in CFTR conductance indicates the compounds stimulated read-through of the PTC in the constructs tested and that the CFTR was functional.

[1] = test system: FRT wild-type CFTR control cells; experiment: Firefly luciferase reporter assay, wild-type control; conditions: 300 to 500 μg/ml, 24 hours
Protocol: The luciferase assay was performed on a Pharmakon 1600 library to determine the efficacy of each compound in promoting read-through. 5 ul of each compound as a DMSO stock solution were dissolved in F-12 Ham medium and dispensed into separate wells of 384-well plates (Corning) using a BioMek FX. FRT cells (10,000 cells/well) containing the reporter gene construct (QXN UGAC) were then added using the Matrix WellMate. The plates were incubated for 24 hours at 37° C., 5% CO2, and 95% humidity, after which firefly luciferase activity was determined by equilibrating the plates to room temperature, adding an equal volume of Promega BrightGlo (Promega), and reading enhanced luminescence with an Envision Plate Reader (PerkinElmer) within 5 minutes. […]
To validate these cell lines, the cell lines were treated with G418, a read-through agent with established efficacy in vitro (Bedwell D M, et al.; Nat Med; 3:1280-1284; 1997), at doses up to from 300 to 500 μg/ml. An increase in luciferase activity indicates G418 stimulated read-through of the PTC in the constructs tested. […] For screening purposes, firefly luciferase levels were measured without assessment of Renilla expression as an indication of total construct expression.

SMILES | CFTR function (conductance) in presence of forskolin and VX-770 (FRT W1282X cells) | CFTR function (conductance) in presence of VX-770 and forskolin (FRT G542X cells; 48 hours, escin 10 μM, NMDI-1 80 μg/ml, NMDI-14 20 μg/ml) | incubation time of maximal effect on forskolin-induced conductance (FRT G542X cells; 250 μg/ml, 0 to 72 hours) [h] | signal intensity at 48 hrs pre-incubation (FRT G542X cells; 250 μg/ml, relative to maximal effect at 72 hrs) [%] | firefly luciferase activity compared to DMSO-treated vehicle [1]
CCOC(=O)c1c(NC(=O)CC2Nc3cc(C)c(C)cc3NC2=O)sc(C)c1C (stereo not drawn) [NMDI-14] | significantly increased | significantly increased |  |  | 
CN[C@@H]1[C@@H](O)[C@@H](O[C@@H]2[C@@H](O)[C@H](O[C@H]3O[C@H]([C@@H](C)O)[C@@H](O)[C@H](O)[C@H]3N)[C@@H](N)C[C@H]2N)OC[C@]1(C)O [G418, geneticin] |  |  | 72 | > 75 | no significant effect
NC[C@H]1O[C@H](O[C@H]2[C@H](O)[C@@H](O[C@H]3O[C@H](CO)[C@@H](O)[C@H](N)[C@H]3O)[C@H](N)C[C@@H]2N)[C@H](N)C[C@@H]1O [tobramycin] | did not stimulate CFTR function |  |  |  | 
